From article PMC8865918 (Journal of medicinal chemistry, 2022)
Values joined by “and” are separate entries in the source; they are usually repeats but may differ in a detail not shown here. Identical values can stand only once. Counter-ions that a name gives are not always drawn. Each block holds one compound with its values, some of them ahead of it.

Legend:
[1] = 30 (6a); ref 9 (6b); cited from earlier work
soluble hCD73 = biological target: T1, soluble hCD73 (Homo sapiens, UniProt P21589); experiment: Inhibition of soluble hCD73; format: biochemical; details: for fold increase in potency (decrease in Ki) relative to compound 9: versus N^4-benzyloxy compound 9; for fold more potent than 22: versus compound 22
T1 sequence (P21589 27-549 limits assumed): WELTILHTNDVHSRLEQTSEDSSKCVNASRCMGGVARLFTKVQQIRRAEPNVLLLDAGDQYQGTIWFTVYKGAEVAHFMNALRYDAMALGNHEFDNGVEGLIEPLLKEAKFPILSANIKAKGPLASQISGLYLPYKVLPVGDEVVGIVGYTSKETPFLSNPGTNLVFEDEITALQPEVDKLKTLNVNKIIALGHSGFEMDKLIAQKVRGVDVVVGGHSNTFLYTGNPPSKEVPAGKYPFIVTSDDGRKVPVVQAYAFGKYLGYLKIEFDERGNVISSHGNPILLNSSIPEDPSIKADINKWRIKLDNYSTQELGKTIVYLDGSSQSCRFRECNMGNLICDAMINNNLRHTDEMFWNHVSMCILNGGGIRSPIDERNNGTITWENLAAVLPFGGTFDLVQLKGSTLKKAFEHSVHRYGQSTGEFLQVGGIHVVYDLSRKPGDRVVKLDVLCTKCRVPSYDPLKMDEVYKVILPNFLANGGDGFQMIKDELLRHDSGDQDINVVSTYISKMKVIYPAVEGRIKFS

σ1 receptor = σ1 receptor (Homo sapiens, UniProt Q99720); experiment: Off-target binding, Psychoactive Drug Screening Program
[2] = biological target: T2, tonsillar CD73 (human palatine tonsil cryosections) (Homo sapiens, UniProt P21589); experiment: In situ ecto-5′-nucleotidase; format: biochemical; details: 50–250 nM inhibitor; 100 μM AMP; tonsillar germinal centers
T2 sequence (P21589 27-574): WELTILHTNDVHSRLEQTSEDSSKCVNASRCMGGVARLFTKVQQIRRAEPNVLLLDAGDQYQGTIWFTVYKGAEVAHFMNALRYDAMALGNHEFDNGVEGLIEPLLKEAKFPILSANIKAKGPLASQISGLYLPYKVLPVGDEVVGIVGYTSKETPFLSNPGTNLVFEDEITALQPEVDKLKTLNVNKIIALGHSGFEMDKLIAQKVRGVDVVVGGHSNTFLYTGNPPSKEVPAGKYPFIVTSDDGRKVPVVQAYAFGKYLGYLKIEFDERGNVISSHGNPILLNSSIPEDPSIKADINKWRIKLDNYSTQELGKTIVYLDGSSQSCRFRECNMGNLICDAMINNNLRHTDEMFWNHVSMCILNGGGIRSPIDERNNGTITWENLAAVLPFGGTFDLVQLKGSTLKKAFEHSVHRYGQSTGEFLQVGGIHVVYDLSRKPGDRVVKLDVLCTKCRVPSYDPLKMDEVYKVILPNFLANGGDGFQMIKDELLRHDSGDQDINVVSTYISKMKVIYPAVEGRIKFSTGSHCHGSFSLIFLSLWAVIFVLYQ

rat soluble CD73 = details: read-out: Ki ± SEM; cited from earlier work

σ1 receptor, sequence (Q99720 whole entry, species assumed): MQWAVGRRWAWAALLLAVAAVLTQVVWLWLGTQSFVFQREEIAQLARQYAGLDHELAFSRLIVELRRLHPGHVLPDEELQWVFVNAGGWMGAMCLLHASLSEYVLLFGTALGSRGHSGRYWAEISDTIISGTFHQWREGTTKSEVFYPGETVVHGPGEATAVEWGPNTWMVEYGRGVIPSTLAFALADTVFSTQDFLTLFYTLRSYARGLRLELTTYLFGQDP

- fold increase in potency (decrease in Ki) relative to compound 9 (soluble hCD73; soluble hCD73): ~ 20 fold and 24 fold
- effect on catalytic (AMPase) activity of tonsillar CD73 in situ [2]: decreased the catalytic activities
Compound: CCN(CC)CC.CCN(CC)CC.Cn1c(=O)n([C@@H]2O[C@H](COP(=O)(O)CP(=O)(O)O)[C@@H](O)[C@H]2O)cc/c1=N/OCc1ccc(I)cc1 [Compound 18, N^4-(4-Iodobenzyloxy)-3-methylcytidine-5′-α,β-methylenediphosphonate Triethylammonium Salt]

- fold weaker than methyl ester 21 (soluble hCD73; soluble hCD73, versus compound 21): 2 fold
Compound: CCN(CC)CC.CCN(CC)CC.Cn1c(=O)n([C@@H]2O[C@H](COP(=O)(O)CP(=O)(O)O)[C@@H](O)[C@H]2O)cc/c1=N/OCc1ccc(C(N)=O)cc1 [Compound 23, N^4-[4-(Carbamoyl)benzyloxy]-3-methylcytidine-5′-α,β-methylenediphosphate Triethylammonium Salt]

- fold more potent than 22 (soluble hCD73; soluble hCD73): 5 fold
Compound: CCN(CC)CC.CCN(CC)CC.CCOC(=O)CCNC(=O)c1ccc(CO/N=c2/ccn([C@@H]3O[C@H](COP(=O)(O)CP(=O)(O)O)[C@@H](O)[C@H]3O)c(=O)n2C)cc1 [Compound 26, N^4-{4-[(3-Ethoxy-3-oxopropyl)carbamoyl]benzyloxy}-3-methylcytidine-5′-α,β-methylenediphosphonate Triethylammonium Salt]

- fold more potent than 22 (soluble hCD73; soluble hCD73): 5 fold
Compound: CCN(CC)CC.CCN(CC)CC.Cn1c(=O)n([C@@H]2O[C@H](COP(=O)(O)CP(=O)(O)O)[C@@H](O)[C@H]2O)cc/c1=N/OCc1ccc(C(=O)NCCC(=O)O)cc1 [Compound 27, N^4-{4-[(2-Carboxyethyl)carbamoyl]benzyloxy}-3-methylcytidine-5′-α,β-methylenediphosphonate Triethylammonium Salt]

Second part, the compound before the results:

Compound: C[C@H](Nc1cc(Cl)nc2c1cnn2[C@@H]1O[C@H](COP(=O)(O)CP(=O)(O)O)[C@@H](O)[C@H]1O)c1ccccc1F [Compound 6a, Quemliclustat]
- oral bioavailability [1]: display oral bioavailability

Compound: COC[C@](CO)(OC[C@H]1O[C@@H](n2ncc3c(NC4CCCC4)nc(Cl)nc32)[C@H](O)[C@@H]1O)P(=O)(O)O [Compound 6b, OP-5244]
- oral bioavailability [1]: display oral bioavailability

Compound: CCN(CC)CC.CCN(CC)CC.Cn1c(=O)n([C@@H]2O[C@H](COP(=O)(O)CP(=O)(O)O)[C@@H](O)[C@H]2O)cc/c1=N/OCc1ccccc1Cl [Compound 10, N^4-(2-Chlorobenzyloxy)-3-methylcytidine-5′-α,β-methylenediphosphonate Triethylammonium Salt]
- fold increase in potency (decrease in Ki) relative to compound 9 (soluble hCD73; soluble hCD73): 6–7 fold

Compound: CCN(CC)CC.CCN(CC)CC.Cn1c(=O)n([C@@H]2O[C@H](COP(=O)(O)CP(=O)(O)O)[C@@H](O)[C@H]2O)cc/c1=N/OCc1cccc(Cl)c1 [Compound 11, N^4-(3-Chlorobenzyloxy)-3-methylcytidine-5′-α,β-methylenediphosphonate Triethylammonium Salt]
- fold increase in potency (decrease in Ki) relative to compound 9 (soluble hCD73; soluble hCD73): 6–7 fold

Compound: Cn1c(=O)n([C@@H]2O[C@H](COP(=O)(O)CP(=O)(O)O)[C@@H](O)[C@H]2O)cc/c1=N/OCc1ccc(Cl)cc1 [Compound 16, N^4-(4-Chlorobenzyloxy)-3-methylcytidine-5′-α,β-methylenediphosphonate Triethylammonium Salt]
- Ki (σ1 receptor): 2.61 ± 0.64 µM

Compound: CCN(CC)CC.CCN(CC)CC.Cn1c(=O)n([C@@H]2O[C@H](COP(=O)(O)CP(=O)(O)O)[C@@H](O)[C@H]2O)cc/c1=N/OCc1ccc(S(F)(F)(F)(F)F)cc1 [Compound 20, N^4-[4-(Pentafluorosulfanyl)benzyloxy]-3-methylcytidine-5′-α,β-methylenediphosphonate Triethylammonium Salt]
- effect on catalytic (AMPase) activity of tonsillar CD73 in situ [2]: decreased the catalytic activities

Compound: CCN(CC)CC.CCN(CC)CC.O=c1ccn([C@H]2[C@H](O)[C@H](O)[C@]3(COP(=O)(O)CP(=O)(O)O)C[C@H]23)c(=O)[nH]1 [Compound 28, {[({(2R,3S,4R,5S)-4-[2,4-Dioxo-3,4-dihydropyrimidin-1(2H)-yl]-2,3-dihydroxy-1λ^5-bicyclo[3.1.0]hexan-1-yl}methoxy)(hydroxy)phosphoryl]methyl}phosphonic Acid Triethylammonium Salt]
- inhibition at 50 µM (soluble hCD73): 28%
- % inhibition (soluble hCD73; soluble hCD73, between 0.03 nM and 50 μM): < 50%

Compound: CCN(CC)CC.CCN(CC)CC.Cn1c(=O)n([C@H]2[C@H](O)[C@H](O)[C@]3(COP(=O)(O)CP(=O)(O)O)C[C@H]23)cc/c1=N/OCc1ccc(Cl)cc1 [Compound 29, [({[(2R,3S,4R,5S)-4-(4-{[(4-Chlorobenzyl)oxy]imino}-3-methyl-2-oxo-3,4-dihydropyrimidin-1(2H)-yl)-2,3-dihydroxy-1λ^5-bicyclo[3.1.0]hexan-1-yl]methoxy}(hydroxy)phosphoryl)methyl]phosphonic Acid Triethylammonium Salt]
- fold weaker inhibitor than ribose analogue 16 (soluble hCD73; soluble hCD73, versus compound 16): 88 fold and ~ 90 fold

Compound: N^4-benzyloxy-3-methylcytidine-5′-α,β-methylene-diphosphonate [Compound 9]
- Ki (rat soluble CD73): 0.00367 µM
